In patent US5925627A, “Use of NK-1 receptor antagonists for treating movement disorders” (Merck Sharp & Dohme Ltd., priority 1996, dated 1999):
Like-named read-outs stand apart in the source and are kept apart here.

Legend:
[1] = tested on: NK-1 receptor (foot tapping induced by NK-1 agonist GR73632); experiment: Gerbil Foot-Tapping (Assay 2); format: in vivo, Mongolian gerbil; conditions: Meriones unguiculatus, iv
Description: CNS-penetrant NK-1 receptor antagonists for use in the present invention can be identified by their ability to inhibit foot tapping in gerbils induced by anxiogenic agents (such as pentagastrin) or central infusion of NK-1 receptor agonists such as GR73632, or caused by aversive stimulation such as foot shock or single housing, based on the method of Rupniak & Williams, Eur. J. Pharmacol., 1994, 265, 179.
Male or female Mongolian gerbils (35-70 g) are anaesthetised by inhalation of an isoflurane/oxygen mixture to permit exposure of the jugular vein in order to permit administration of test compounds or vehicle in an injection volume of 5 ml/kg i.v. Alternatively, test compounds may be administered orally or by subcutaneous or intraperitoneal routes. A skin incision is then made in the midline of the scalp to expose the skull.

[2] = tested on: separation-induced vocalisations by guinea-pig pups; experiment: animal or person; conditions: Cavia porcellus, po, 4 h, read-out: guinea-pig vocalisation (4 hr. pre-treatment): ID50
Protocol: Male and female guinea-pigs pups are housed in family groups with their mothers and littermates throughout the study. Experiments are commenced after weaning when the pups are 2 weeks old. Before entering an experiment, the pups are screened to ensure that a vigorous vocalisation response is reproducibly elicited following maternal separation. The pups are placed individually in an observation cage (55 cm×39 cm×19 cm) in a room physically isolated from the home cage for 15 minutes and the duration of vocalisation during this baseline period is recorded. […] On test days each pup receives an oral dose or an s.c. or i.p. injection of test compound or vehicle and is then immediately returned to the home cage with its mother and siblings for 30 to 60 minutes (or for up to 4 hours following an oral dose, dependent upon the oral pharmacokinetics of the test compound) before social isolation for 15 minutes as described above. […] Between 6 and 8 animals receive each test compound at each dose tested.

C[C@@H](O[C@H]1OCCN(Cc2n[nH]c(=O)[nH]2)[C@H]1c1ccc(F)cc1)c1cc(C(F)(F)F)cc(C(F)(F)F)c1 [2-(R)-(1-(R)-(3,5-bis(trifluoromethyl)phenyl)-ethoxy)-3-(S)-(4-fluorophenyl)-4-(3-(5-oxo-1H, 4H-1,2,4-triazolo)methyl)-morpholine]
ED50 ([1]; 5 min, i.v. immediately prior to GR73632 challenge, read-out: gerbil foot-tapping (5 mins.): ID50): 0.36 mg/kg | ED50 ([1]; 24 hrs., i.v. 24 hours prior to central NK1 agonist challenge, read-out: gerbil foot-tapping (24 hrs.): ID50): 0.33 mg/kg | ED50 [2]: 0.73 mg/kg
